Measured values: PubChem BioAssay AID463206 (Broad Institute, 2010)
Active and inactive are the calls of the source.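 The calls were made as follows: active = caspase luminescence falls with dose and the half-maximal concentration AC50 from the fitted curve is at or below a set limit; inconclusive = flat fit at 30 to 70% signal loss, or invalid fit; inactive = AC50 above the limit, or signal rises instead.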

tested on: INS-1E cytokine-induced caspase-3/7, Caspase-Glo luminescence, 48 h; test: suppression of cytokine-driven beta-cell apoptosis – INS-1E rat cells, luminescence, orthogonal assay for beta-cell apoptosis protection project, dose response (AID 463206)

Compound | AC50
CCN(CC)C(=O)c1cc([N+](=O)[O-])cc2c1-c1ccc([N+](=O)[O-])cc1C2=C(C#N)C#N | > 26 µM (inactive)
COc1ccc(C2NCCc3c2[nH]c2ccccc32)cc1COc1ccc(F)cc1 (stereo not given) | > 26 µM (inactive)
Cc1cccc2sc(NNC(=O)c3ccc(S(=O)(=O)N4CC(C)CC(C)C4)cc3)nc12 (stereo not given) | > 26 µM (inactive)
O=C(CSc1nnc(Cn2nnc3ccccc32)o1)N(Cc1ccc(F)cc1)c1ccccc1 | > 26 µM (inactive)
COc1cccc(N2CCN(c3ncnc4c3[nH]c3ccc(F)cc34)CC2C)c1 (stereo not given) | > 26 µM (inactive)
CCOC(=O)N1CCN(S(=O)(=O)c2ccc(C(=O)NNc3nc4cc(C)cc(C)c4s3)cc2)CC1 | > 26 µM (inactive)
N#CC(C#N)=C(Nc1ccc(F)cc1)SCc1cccc(F)c1 | > 26 µM (inactive)
Cn1cccc1C1C=C(c2ccc(C(C)(C)C)cc2)Nc2ncnn21 (stereo not given) | > 26 µM (inactive)
Cc1ccc(S(=O)(=O)Nc2ccc(O)c3ccccc23)c(C)c1 | > 26 µM (inactive)
CCOC(=O)C(C(C)=O)c1c(Br)c(O)c(O)c2c(C(=O)c3ccc(C)cc3)coc12 (stereo not given) | > 26 µM (inactive)
CCc1ccc(CN(C)C(=O)c2cc(COc3cccc4cnccc34)on2)cc1 | > 26 µM (inactive)
Cc1ccc(C(=O)C[n+]2cc(-c3ccc(C)cc3)n3c2CCCCC3)cc1 | > 26 µM (inactive)
CCCC(=O)NC(c1ccc(Cl)cc1Cl)c1ccc2cccnc2c1O (stereo not given) | > 12 µM (inactive)
CC(C)CN(C(=O)COC(=O)C12CC3CC(CC(C3)C1)C2)c1c(N)n(Cc2ccccc2)c(=O)[nH]c1=O | > 26 µM (inactive)
O=C(NNc1ccccc1Br)C(O)(c1cccc(C(F)(F)F)c1)c1cccc(C(F)(F)F)c1 | > 26 µM (inactive)
CC[C@H](C)Cc1cn([C@@H](CCCCNC(=O)OC(C)(C)C)C(=O)NCCCCCCCCCCC(=O)N2CCN(C(=O)OC(C)(C)C)CC2)nn1 | > 26 µM (inactive)
CCN(CC)c1ccc(/C=N/NC(=O)c2ccco2)c(O)c1 | > 26 µM (inactive)
Cc1cc(C)c2c(C)[nH]nc2n1 | > 26 µM (inactive)
CC(=O)c1c(C)n(CC(=O)NCc2ccco2)c2ccccc12 | > 26 µM (inactive)
COc1ccc(C(=O)N2CCN(c3ccc([N+](=O)[O-])c(NCCc4ccc(OC)c(OC)c4)c3)CC2)cc1 | > 26 µM (inactive)
CCCOc1ccc(/C=N/Nc2cc(N3CCOCC3)ncn2)c(O)c1 | > 26 µM (inactive)
C#CCOCCOCCOCCNc1nc(N2CCN(C(=O)CCCCCCCCCCNC(=O)Cn3cc(C[C@@H](C)O)nn3)CC2)nc(N2CCN(C(=O)CCCCCCCCCCNC(=O)[C@@H]([C@H](C)CC)n3cc(CCCCCN)nn3)CC2)n1 | > 26 µM (inactive)
OCCNc1nc(Nc2ccc(Cl)c(Cl)c2)nc2ccccc12 | > 26 µM (inactive)

Compound | AC50
COc1ccccc1CNCC(O)Cn1c2ccccc2c2ccccc21 (stereo not given) | > 26 µM (inactive)
CN(C)C1CCN(Cc2cc(COCc3ccccc3)c3cccnc3c2O)C1 (stereo not given) | > 26 µM (inactive)
COc1ccc(N2CC(C(=O)N3CCN(c4ccccc4F)CC3)CC2=O)cc1 (stereo not given) | > 26 µM (inactive)
Cc1cccc(NC(=S)N/N=C/c2ccc([N+](=O)[O-])s2)c1 | > 26 µM (inactive)
Cc1cc(N2CCN(S(=O)(=O)c3ccc(Cl)cc3)CC2)c2ccccc2n1 | > 12 µM (inactive)
COc1ncnc(OC)c1S(=O)(=O)Nc1ccc(C(F)(F)F)cc1 | > 26 µM (inactive)
Oc1ccc(Br)cc1CNc1cccc2cccnc12 | > 26 µM (inactive)
O=C(N/N=C/c1cc(Br)c(O)c(Br)c1O)c1ccc2c(c1)OCCO2 | > 26 µM (inactive)
COc1cc([N+](=O)[O-])ccc1NC(=O)CC1SC(=Nc2ccc(F)cc2)N(CCC2=CCCCC2)C1=O (stereo not given) | > 26 µM (inactive)
CN(C)c1cc[n+](Cc2c(Cl)cccc2Cl)cc1 | > 26 µM (inactive)
Cc1ccccc1OCc1n(CC(=O)OC2CC(C)CCC2C(C)C)c2ccccc2[n+]1C (stereo not given) | > 26 µM (inactive)
CCCSc1nsc(NC(=O)Nc2ccc(F)cc2F)n1 | > 26 µM (inactive)
Cc1ccc2c(c1)S/C(=C/c1ccc[n+](C)c1)N2CCO | > 26 µM (inactive)
O=C(COC(=O)c1cn(-c2ccccc2)nc1-c1ccccc1)c1cccc([N+](=O)[O-])c1 | > 26 µM (inactive)
COc1ccccc1/C=N\Nc1cc(C)nc(-n2nc(C)cc2C)n1 | > 26 µM (inactive)
CCCCCCc1cc2cc(-c3nnc(-c4ccccc4)o3)c(=O)oc2cc1O | > 26 µM (inactive)
CC1=[N+](C)c2ccc3ccccc3c2C1(C)C | > 26 µM (inactive)
O=C(NCCCn1ccnc1)c1ccc(-c2ccccc2)cc1 | > 26 µM (inactive)
FC(F)(F)c1nnc(-c2ccccc2)nc1Sc1ccc(Cl)cc1 | > 26 µM (inactive)
CCCCOc1ccc(C(=O)NNC(=S)NC(=O)CC)cc1 | > 26 µM (inactive)
Cc1cc(N/N=C/c2ccc(O)cc2O)nc(-c2ccccc2O)n1 | > 26 µM (inactive)
CCS(=O)(=O)c1ncc(Cl)c(C(=O)Nc2ccc(S(=O)(=O)N3CCCC(C)C3)cc2)n1 (stereo not given) | > 26 µM (inactive)
